Patent publication US20210321627A1, “NON-PESTICIDAL ATTRACT AND KILL COMPOSITION FOR CONTROL OF INSECTS” (Oregon State University, priority 2018, published 2021)

System: D. suzukii
Assay: Laboratory choice assays (double-choice ventilated arenas)
Assay type: in vivo, Drosophila suzukii
Conditions: vs flies selecting deionized water and flies not making any choice; 24 h; P<0.001
Experimental: Constant and uniform airflow was created within each of the containers using a vacuum at 1.5 L mid′ from the base and through the upper portion of each of the respective containers. Attraction to the matrix containing the ingredients of the exemplary insect control composition was verified in double-choice behavioral experiments. Arenas were prepared using 2-L transparent Griffin-style graduated low-form plastic beakers (Nalgene, Rochester, N.Y.). For each beaker, 9 ventilation holes (1 cm diameter) were cut along the circumference approximately 6 cm from the base. The holes were covered with fine white mesh in order to prevent D. suzukii individuals from escaping. The top of each beaker was drilled and connected to a 0.5 cm diameter plastic tube providing a vacuum in order to create a constant and uniform air flow (1.5 L min^−1) within the containers. Beakers were placed upside down on a flat work surface covered by white paper sheets. Two 25 mL plastic cups (Dart Container Corporation, Mason, Mich.) containing ˜10 mL of water and 5 g of arabinogalactan were placed at the base of each beaker. Both cups were covered with a wax film (Parafilm® M, Pechiney, Chicago, Ill.). 3 holes (˜0.3 cm diameter) were cut on the film coverings in order to allow the flies to enter the cups. […]

With arabinogalactan the “number of flies selecting deli cups containing arabinogalactan” value was “significantly higher”.
